Source: article PMC9569529, “Safe and Efficient Sigma1 Ligand: A Potential Drug Candidate for Multiple Sclerosis” (International Journal of Molecular Sciences, 2022)

How the values were obtained:
S. typhimurium TA1535 = conditions: +S9; 7i 40 µg/plate; positive control 2-anthramine 0.5
S. typhimurium TA100 = conditions: +S9; 7i 40 µg/plate; positive control 2-anthramine 0.5
S. typhimurium TA1537 = assay: Ames test; conditions: 7i 40 µg/plate
S. typhimurium TA98 = assay: Ames test; conditions: 7i 40 µg/plate
[1] = tested on: experimental autoimmune encephalomyelitis (EAE); design: method as in PMID 25521311; conditions: BD-1047 alone; cited from earlier work
TK6 cells = conditions: human
Procedure: The frequency of micronucleated (MN) cells was determined out of at least 2000 mononucleated cells.

S1R–BiP complex = assay: S1R-BiP dissociation assay in CHO cells (co-IP, ELISA); type: cell-based; conditions: for effect on S1R–BiP association: 10 µM, 30-min incubation
Procedure: The activity of compound 7i was evaluated in regard to its ability to dissociate the S1R–BiP complex. The S1R–BiP dissociation assay was performed by Amylgen (Montferrier-sur-Lez, France) as described in [13, 79]. Briefly, CHO cells were treated with test compounds for 30 min (37 °C). Crosslinking was performed with dithiobis succinimidyl propionate (DSP; Thermoscientific, Waltham, MA, USA). Lysis was performed after incubation for 15 min on ice. After centrifugation, supernatants were incubated overnight (4 °C) with the S1R antibody (Abcam, Cambridge, UK). Lysates were incubated with Sepharose Protein-A (Invitrogen). After the first centrifugation, the pellet was resuspended in radioimmunoprecipitation assay (RIPA) buffer. After a second centrifugation, the pellet was resuspended in 2× sample buffer/bMCE buffer. After the third centrifugation, supernatants were analyzed for BiP immunoreactivity (SEC343Mu ELISA, USCNK Life Sciences, Wuhan, China).

[2] = tested on: dizocilpine-induced learning deficits; assay: Dizocilpine-induced learning deficits, Y-maze spontaneous alternation; type: in vivo, male Swiss mice; conditions: 3 mg/kg i.p., alone
Procedure: (§1) The activity of compound 7i was evaluated in regard to its ability to reverse dizocilpine-induced learning deficits. Two behavioral tests were performed by Amylgen (Montferrier-sur-Lez, France) on male Swiss mice (aged 6–9 weeks). All compounds (7i and controls) were intraperitoneally injected.
(§2) Animals were tested for spontaneous alternation performance in the Y-maze, an index of spatial working memory. Made of grey polyvinylchloride, the Y-maze has an arm which is 40 cm long, 13 cm high and 3 cm wide at the bottom and 10 cm wide at the top, converging at an equal angle. Each mouse was placed at the end of one arm and allowed to move freely through the maze during an 8-min session. The series of arm entries, including possible returns into the same arm, were checked visually. An alternation was defined as entries into all three arms on consecutive occasions. The number of maximum alternations was therefore the total number of arm entries minus two, and the percentage of alternation was calculated as: (actual alternations/maximum alternations) × 100. Parameters included the percentage of alternation (memory index) and the total number of arm entries (exploration index). Animals showing extreme behavior (alternation < 20% or >90% or number of arm entries < 10) are usually discarded from the calculations. […] Step-through latency (the latency in time spent to enter the dark compartment) and the number of vocalizations were recorded. […] Step-through latency was recorded up to 300 s. When either the mouse entered the dark compartment or 300 s had elapsed (they were therefore manually placed in it), escape latency (latency to exit from the dark compartment) was recorded with a value of up to 300 s. […]

[3] = tested on: dizocilpine-induced learning deficits; assay: Dizocilpine-induced learning deficits, step-through passive avoidance; type: in vivo, male Swiss mice; conditions: 3 mg/kg i.p., alone
Procedure: as §1, §2

QT interval = assay: ECG QT interval analysis under isoflurane anesthesia; conditions: for QT Interval Basal / QT Interval 3 min / QT Interval 6 min / QT Interval 10 min: in ms (unit assumed); for QT Interval 3 min: 3 min after injection; for QT Interval 6 min: 6 min after injection; for QT Interval 10 min: 10 min after injection
Procedure: Four electrodes were inserted subcutaneously in the mouse limbs. Electrical signals were recorded with a Powerlab (Ad instruments) and analyzed with LabChart Pro software (v8.1.19).
Heart rate and PR, QRS and QT intervals were measured as described in Supplementary Figure S3.

[4] = +S9, positive control 2-anthramine 0.5

With `Nc1ccc2cc3ccccc3cc2c1` [2-anthramine, reference compound] the “Ames TA1535 +S9 (Mean revertants/well per title)” value (S. typhimurium TA1535) was 26.9, the “Ames TA100 +S9 (Mean revertants/well per title)” value (S. typhimurium TA100) was 6.0 and the “Ames TA1537 +S9 (Mean revertants/well per title)” value (S. typhimurium TA1537; [4]) was 27.6. For the same molecule, the “Ames TA98 +S9 (Mean revertants/well per title)” value (S. typhimurium TA98; [4]) was 36.0.

With `O=[N+]([O-])c1ccc2c(c1)Cc1ccccc1-2` [2-nitrofluorene, reference compound] the “Ames TA98 −S9 (Mean revertants/well per title)” value (S. typhimurium TA98; −S9, positive control 2-nitrofluorene 0.5) was 23.1.

In the case of `Nc1c2ccccc2nc2ccccc12` [9-amino-acridine, reference compound], the “Ames TA1537 −S9 (Mean revertants/well per title)” value (S. typhimurium TA1537; −S9, positive control 9-amino-acridine 1.56) is reported as 8.4.

For `CN(C)CCN(C)CCc1ccc(Cl)c(Cl)c1` [BD-1047], the “effect on EAE development, alone” value [1] is listed as “no significant effect”.

With `O=P1(N(CCCl)CCCl)NCCCO1` (centres unmarked) [Cyclophosphamide] the “MN/2 × 10^3 Cells” value (TK6 cells) was 35.5 and the “RS (%)” value (TK6 cells) was 88.3%.

For `CCCN(CCC)CCc1ccc(OC)c(OCCc2ccccc2)c1` [NE-100, reference compound], the “effect on S1R–BiP association” value (S1R–BiP complex) was “no effect”, the “effect by itself in Y-maze” value [2] was “devoid of any effect” and the “effect by itself in passive avoidance” value [3] was “devoid of any effect”.

In the case of `O=C(OCCN1CCOCC1)C1(c2ccccc2)CCCCC1` [PRE-084, reference compound], the “effect on S1R–BiP association” value (S1R–BiP complex) is reported as “significantly causes the dissociation” and the “effect on S1R–BiP dissociation in presence of NE-100” value (S1R–BiP complex; co-treatment with NE-100 (10 µM)) is reported as “blocks”.

With `C=C[C@H]1C[N@@]2CC[C@H]1C[C@@H]2[C@@H](O)c1ccnc2ccc(OC)cc12` [Quinidine, reference compound] the “QT interval, conclusion” value (QT interval; 10 mg/kg and 100 mg/kg i.p., 6 to 10 min after injection) was “dose-dependently prolonged the QT interval”, the “QT Interval Basal” value (QT interval; 10.0 mg/kg i.p. group) was 46 ± 2 and the “QT Interval 3 min” value (QT interval; 10.0 mg/kg i.p.) was 50 ± 2. The “QT Interval 6 min” value (QT interval; 10.0 mg/kg i.p.) was 64 ± 6, the “QT Interval 10 min” value (QT interval; 10.0 mg/kg i.p.) was 65 ± 5 and the “QT Interval Basal” value (QT interval; 100.0 mg/kg i.p. group) was 47 ± 4. For the same molecule, the “QT Interval 3 min” value (QT interval; 100.0 mg/kg i.p.) was 58 ± 3, the “QT Interval 6 min” value (QT interval; 100.0 mg/kg i.p.) was 84 ± 7 and the “QT Interval 10 min” value (QT interval; 100.0 mg/kg i.p.) was 76 ± 4.
